Columns and labels:
[1] = test system: peritoneal murine macrophages (PM); assay: Cytokine production by peritoneal macrophages (ELISA); format: cell-based, mouse (Balb/c); conditions: for reduction of TNF-α production induced by LPS / reduction of TNF-α production induced by VHCDR3: PM 5×10^6/ml, wortmannin 4 nM or SB203580 0,2 µM; for reduction of TNF-α production induced by LPS: LPS 10 µg/ml; for reduction of TNF-α production induced by VHCDR3: VHCDR3 10 µg/ml; for TNF-α production by PM / IL-6 production by PM: 18 h, P<0.05 vs untreated
Experimental: DC and CD4^+ T cells were separated from spleens of inbred Balb/c mice using N-418 or L3T4 mAb-conjugated MicroBeads (Miltenyi Biotec, Bergisch Gladbach, Germany), and magnetic separation was performed according to the manufacturer's instruction. Peritoneal murine neutrophils (PMN) and macrophages (PM) were collected 18 h or 4 days, respectively, after the intraperitoneal injection of 1 ml endotoxin-free 10% thioglycolate solution (Difco).
(§1) Unfractionated spleen cells (10×10^6/ml), recovered from Balb/c mice, were cultured in the presence or absence of mAb HuA and mAb MoA CDR peptides, LPS or NC (all 10 µg/ml) for 18 h in RPMI-1640 plus 10% FCS (complete medium) at 37°C and 5% CO2. After incubation, the supernatants were collected and tested for TNF-α and IL-6 levels by specific ELISA assays (Biosource, Camarillo, CA, USA). In selected experiments, PM (5×10^6/ml) were cultured as above described. After incubation, the supernatants were collected and tested for TNF-α and IL-6 levels by specific ELISA assays (Biosource). PM (5×10^6/ml) were cultured in the presence or absence of mouse VHCDR3, LPS, NC or SP (all at 10 µg/ml) for 1 or 18 h in complete medium at 37°C and 5% CO2. PM (5×10^6/ml) were cultured as above described in the presence or absence of wortmannin (4 nM) or SB203580 (0,2 µM) (both from Sigma). After incubation, the supernatants were collected and tested for TNF-α level by specific ELISA assays (Biosource). In selected experiments, PM (5×10^6/ml) were cultured in the presence or absence of VHCDR3, LPS, NC, SP and nine VHCDR3 alanine-substituted derivatives (all at 10 µg/ml) for 18 h in complete medium at 37°C and 5% CO2. After incubation, the supernatants were collected and tested for TNF-α level by specific ELISA assays (Biosource). PMN (5×10^6/ml) were cultured in the presence or absence of mAb MoA CDR peptides, LPS or NC (all 10 µg/ml) for 18 h in complete medium at 37°C and 5% CO2. After incubation, the supernatants were collected and tested for TNF-α and IL-6 levels by specific ELISA assays (Biosource). Cytokine titers were calculated by reference to standard curves, constructed with known amounts of recombinant cytokines.

[2] = test system: IkBα; assay: Phospho-IkBα Western blotting in PM; format: cell-based, mouse (Balb/c); conditions: 1 h, n = 5
Experimental: (§2) After incubation, cells were washed and lysated with Mammalian protein extraction reagent (M-PER) in the presence of protease and phosphatase inhibitors (all from Pierce, Rockford, IL). Protein concentration was determined with a BCA protein Assay Reagent kit (Pierce). The lysates (30 µg of each sample) were separated by sodium dodecyl-sulfate-10% PAGE, transferred to a nitrocellulose membrane (Pierce) for 1 h at 100 V in a blotting system (Bio-Rad) for Western Blot analysis, and the membranes were incubated over-night with rabbit polyclonal Abs to phospho-Akt (pAkt; dilution 1/1000), phospho-IkBα (pIkBα; dilution 1/1000) (all from Cell Signalling Technology, Beverly, MA) and rabbit polyclonal Ab to TLR-4 (dilution 1/200) (Santa Cruz Biotechnology Inc.) in blocking buffer. […] Immunoreactive bands were visualized and quantified by Chemidoc Instrument (Bio-Rad). In particular, a quantitative analysis of the region of interest drawn around the outer edge of the band, was performed based on the guidelines for the use of the Chemidoc Instrument (Bio-Rad). […] All the parallelograms that form a band create one unique three-dimensional solid structure on which the volume is calculated. […]

[3] = test system: TNF-α gene; assay: TNF-α gene expression in PM (quantitative RT-PCR); format: cell-based, mouse (Balb/c); conditions: PM 1×10^6/ml, 10 µg/ml, qPCR normalized against GADPH, n = 5
Experimental: (§3) After incubation, cells were lysed using Trizol reagent (Invitrogen, Carlsbad, CA), and total RNA was extracted. The reverse transcriptase (RT) reaction was performed using Moloney murine leukaemia virus reverse transcriptase (M-MLV RT), as described in the manufacturer's instructions (Invitrogen).
(§4) TNF-α, TLR-4, and GADPH clones for use as standards were prepared by PCR from cDNA derived from PM and cloned into p-Drive vector (Qiagen, S.p.A., Milano, Italy). These were verified by sequence analysis. Plasmid DNA was diluted 10-fold and the starting concentration for the dilution series was 10^8 gene copies/µl.
(§5) For each target gene, primers were selected using the Beacon Designer software (Bio-Rad, Hercules, CA). Real-time RT-PCR (quantitative RT-PCR) was performed in 96-well PCR plates using the SYBR green (all from BioRad). For real-time PCR reaction 100 ng/µl of reverse-transcribed RNA was used and cDNA was normalized according to GADPH as an internal NC gene. Amplification conditions were the same for TNF-α, TLR-4 and GADPH mRNAs assayed: 3 min at 95°C, 40 cycles of 10 s at 95°C and 30 s at 62°C. For the Melt Curve, the amplification condition was: 1 min at 50°C and 90 cycles of 10 s at 50°C. The experiments were performed using the iCycler IQ Multicolor Real-time PCR Detection System (BioRad).

[4] = test system: C. albicans strain (CA-6); conditions: previously proven; ref [8], [16]; cited from earlier work
Source text: The CDRs of human mAb HuA (IgM) and mouse mAb MoA (IgM) specific for the difucosyl human blood group A substance, were chemically synthesized on the basis of the previously described sequences of VH and VL chain [21]. An irrelevant synthetic decapeptide (MSTAVSKCAT), previously proven to be devoid of either candidacidal or immunomodulatory activity, was used as a negative control (NC), [16]. In selected experiments, a scramble peptide (SP) (YYWLQGGFAN) and nine VHCDR3 alanine-substituted derivatives were used for control of specificity and evalua ...

[5] = test system: TLR-4; assay: TLR-4 expression in PM (flow cytometry); format: cell-based, mouse (Balb/c); conditions: PM 1×10^6/ml, 10 µg/ml, 1 h, RPE-labelled mAb to TLR-4, FACScan, representative experiment out of five
Source text: Data are reported as percentage of positive cells. […] Data are expressed as percentage of positive cells.

[6] = test system: TLR-4 gene; assay: TLR-4 gene expression in PM (quantitative RT-PCR); format: cell-based, mouse (Balb/c); conditions: PM 1×10^6/ml, 10 µg/ml, qPCR normalized against GADPH, n = 5
Experimental: as §3, §4, §5

[7] = test system: murine splenocytes; assay: Cytokine production by unfractionated spleen cells (ELISA); format: cell-based, mouse (Balb/c); conditions: 10 µg/ml, 18 h, 10×10^6 cells/ml, ELISA of supernatants, data not shown
Experimental: as §1

[8] = test system: TLR-4; assay: TLR-4 protein Western blotting in PM; format: cell-based, mouse (Balb/c); conditions: PM 3×10^6/ml, 10 µg/ml, 1 and 3 h, Western blot, n = 5
Experimental: as §2

[9] = test system: Akt; assay: Phospho-Akt Western blotting in PM; format: cell-based, mouse (Balb/c); conditions: PM 3×10^6/ml, 10 µg/ml, 1 h, Western blot, with respect to NC and SP, n = 5
Experimental: as §2

[10] = test system: C. albicans (CA-6); assay: Therapeutic activity against systemic candidiasis in mice; format: in vivo, Balb/c mice; conditions: 200 µg i.p. 4 h before, 100 µg 1 and 2 days after infection
Experimental: Female, 8–10 weeks old, inbred Balb/c mice were obtained from Harlan Nossan Laboratories (Milan, Italy) and housed at the Animal Facilities of the University of Perugia, Perugia, Italy. Procedures involving animals and their care were conducted in conformity with national and international laws and policies.
Groups of 7 Balb/c mice were infected intravenously with 5×10^5 or 7.5×10^5 CA-6 cells suspended in 0.5 ml saline for evaluation of fungal clearance or mice survival, respectively.
Infected animals were given 200 µg of mouse VLCDR3 or VHCDR3 peptides intraperitoneally 4 h before infection, and 100 µg 1 and 2 days after infection for a total of 400 µg/mouse. Untreated animals served as a NC. Quantification of fungal growth at 5, 7, and 12 days after infection was assessed by plating serial dilutions of kidney homogenates onto Sabouraud agar. Animal survival was monitored for 30 days after infection.

[11] = test system: C. albicans strain (CA-6); assay: In vitro candidacidal CFU assay; format: cell-based, Candida albicans; conditions: 100 µg/ml, CA-6 cells
Experimental: The origin and characteristics of the highly virulent C. albicans strain (CA-6) used in this study have been previously described. The culture was maintained by serial passages on Sabouraud agar (BioMérieux, Lyon, France). The yeast cells were harvested by suspending a single colony in saline, washed twice, counted in a hemocytometer and adjusted to the desired concentration.
The in vitro activity against CA-6 cells of mAb MoA synthetic CDRs at the concentration of 100 µg/ml was evaluated by a conventional Colony Forming Unit (CFU) assay as described elsewhere.

[12] = test system: PM; assay: Uptake of biotin-labelled peptide by PM (flow cytometry); conditions: 10 µg/ml, 37°C, FACScan, n = 7
Experimental: DC, PM, PMN and CD4^+ T cells (all 1×10^6/ml) were incubated for 1 h with biotin-labelled mouse VHCDR3 (b-VHCDR3) or biotin-labelled NC (b-NC) (both 10 µg/ml) in complete medium at 37°C and 5% CO2. After incubation, cells were fixed with 4% formalin for 5 min at room temperature (RT), permeabilized with 0.1% saponin, washed with 0.1% saponin and incubated for 20 min on ice with FITC-labelled mAb to biotin (1 µl/test; Mouse IgG1 isotype) (Miltenyi Biotec), washed with 0.1% saponin and analyzed by FACScan flow cytometry (BD Biosciences). Data are reported as percentage of positive cells. In selected experiments, PM (1×10^6/ml) were incubated for different times with b-VHCDR3 or b-NC (both 10 µg/ml) in complete medium at 37°C and 5% CO2. After incubation, cells were fixed, permeabilized and washed as above and incubated for 20 min on ice with FITC-labelled mAb to biotin, washed with 0.1% saponin and analyzed by FACScan flow cytometry (BD Biosciences). Data are reported as mean fluorescence intensity (MFI) or percentage of positive cells. […] NC staining of cells with irrelevant Abs were used to obtain background fluorescence values.
In selected experiments, PM were incubated for 1 h with b-VHCDR3 or b-NC (both 10 µg/ml) in complete medium at 37°C and 5% CO2. After incubation, cells were reacted with FITC-labelled mAb to biotin in the presence of Evans' Blue (StemCell Technologies Inc., Milan, Italy) as a counterstain, and subsequently examined under fluorescent light microscopy (Carl Zeiss, Jena, Germany).

[13] = 10 µg/ml, 5×10^6 cells/ml, n = 7

COC[C@H]1OC(=O)c2coc3c2[C@@]1(C)C1=C(C3=O)[C@@H]2CCC(=O)[C@@]2(C)C[C@H]1OC(C)=O [wortmannin]
reduction of TNF-α production induced by LPS [1]: 39% | reduction of TNF-α production induced by VHCDR3 [1]: 28% | effect on VHCDR3-induced IkBα phosphorylation ([2]; PM, wortmannin 4 nM with VHCDR3 10 µg/ml): significantly reduced

MSTAVSKCAT [NC, irrelevant synthetic decapeptide used as a negative control, reference compound]
TNF-α gene expression, 1 and 6 h [3]: inability | TNF-α production by PM ([1]; 10 µg/ml, 5×10^6 cells/ml): did not stimulate cytokine production | IL-6 production by PM [1, 13]: did not stimulate cytokine production | candidacidal or immunomodulatory activity [4]: devoid | Percentage of TLR-4 positive cells [5]: 24.1 | TLR-4 gene expression, 1 h [6]: No activation | IL-6 production by splenocytes [7]: did not affect cytokine production | TNF-α production by splenocytes [7]: did not affect cytokine production

C[S+]([O-])c1ccc(-c2nc(-c3ccncc3)c(-c3ccc(F)cc3)[nH]2)cc1 (centres unmarked) [SB203580]
reduction of TNF-α production induced by LPS [1]: 28% | reduction of TNF-α production induced by VHCDR3 [1]: 21%

GQYGNLWFAY [VHCDR3]
TNF-α gene expression, 1 and 6 h [3]: significant increase | TNF-α gene expression, 18 h ([3]; 18 h): rapid decline of gene expression | TNF-α production by PM after 1 h ([1]; 10 µg/ml, 1 h, 5×10^6 cells/ml, n = 7): significant increase | TNF-α production by PM ([1]; 10 µg/ml, 5×10^6 cells/ml): significant up-regulation | IL-6 production by PM [1, 13]: significant up-regulation | TLR-4 protein (normalized against actin) [8]: significant up-regulation | Akt phosphorylation (pAkt normalized against Akt) [9]: increased activation of pAkt | CFU recovery from kidneys ([10]; 5×10^5 CA-6 cells i.v., 5, 7 and 12 days after infection, n = 7): impressive decrease | survival of infected mice ([10]; 7.5×10^5 CA-6 cells i.v., 30 days, vs untreated or VLCDR3-treated, Log rank P<0.05, n = 7): significant increase in survival | Percentage of TLR-4 positive cells [5]: significant increase | Percentage of TLR-4 positive cells ([5]; listed as VH CDR3): 38.1 | TLR-4 gene expression, 1 h [6]: significant increase | TLR-4 gene expression, 6 h ([6]; 6 h): declined | IL-6 production by splenocytes [7]: increased production | TNF-α production by splenocytes [7]: increased production | IkBα phosphorylation (pIkBα normalized against IkBα) ([2]; PM 3×10^6/ml, 10 µg/ml, Western blot, compared to NC): increased activation of pIkBα | candidacidal effect in vitro [11]: ineffective | kinetics of uptake by PM (MFI and percentage of positive cells), 6 and 18 h ([12]; 6 and 18 h incubation): persisted | kinetics of uptake by PM (MFI and percentage of positive cells), 1 h ([12]; 1 h incubation): high level | kinetics of uptake by PM (MFI and percentage of positive cells), 72 h ([12]; 72 h incubation): negligible levels

QQRSNWPRS [mAb HuA VLCDR3, synthetic VLCDR3 of human mAb HuA]
IL-6 production by PM [1, 13]: significant up-regulation | IL-6 production by splenocytes [7]: significant up-regulation

From publication PMC2781551, “Antibody Complementarity-Determining Regions (CDRs): A Bridge between Adaptive and Innate Immunity” (PLoS ONE, 2009)
